Data published in US9107900B2, “Use of dronedarone for the preparation of a medicament for use in the prevention of cardiovascular hospitalization or of morality” (SANOFI, priority 2008, dated 2015).
Structures can show the parent of a compound that is named as a salt.

Assay: blood potassium level from regular blood samples in the same clinical study
Assay type: in vivo, human
Settings: after the 24th month, taking into account the starting value; vs placebo; p<0.0001
Source text: The potassium concentration-modulating effect is clearly documented in the study by virtue of the results of analyses of regular blood samples taken throughout the duration of the study in the context of the monitoring of vital parameters.
The variations in potassium (in mmol/l) between the first and the last administration of the medicament of the study are included in FIG. 8, in which B signifies basal level, D signifies day and M signifies month.

Structure (SMILES): CCCCc1oc2ccc(NS(C)(=O)=O)cc2c1C(=O)c1ccc(OCCCN(CCCC)CCCC)cc1 [dronedarone hydrochloride, 2-n-Butyl-3-[4-(3-di-n-butylaminopropoxy)benzoyl]-5-methylsulphonamidobenzofuran]
- change in blood potassium level (analysis of covariance): significant different in favour of dronedarone
